In brackets after ≈: the same amount, converted by molar mass.

The conditions of data set [1]: pH 7.4.
In another data set the test system is E. coli NIHJ. The data set can be described thus: Antibacterial activity (MIC), E. coli NIHJ. The data set is classed as cell-based. The settings on record: Escherichia coli. As for the experimental part:
(§1) The present invention will now be illustrated by way of Formulation Examples, Reference Examples, and Examples, but the present invention should not be construed as being limited thereto. All the percents are by weight unless otherwise indicated. The antibacterial activity assays were performed by the method specified by Japan Society of Chemotherapy (Chemotherapy 29(1), 76 (1981), and the results are summarized in Table 1 in terms of minimum inhibitory concentration (MIC).

The subject of a further data set is S. flexneli, 2A, 5503. In words: Antibacterial activity (MIC), S. flexneli, 2A, 5503. It is filed as cell-based. As for the experimental part:
as §1

The test system of another data set is Pr. vulgaris, 08601. The data set can be described thus: Antibacterial activity (MIC), Pr. vulgaris, 08601. It is filed as cell-based. The settings on record: Proteus vulgaris. As for the experimental part:
as §1

The subject of another data set is Pr. mirabiris, IFO-3849. The data set can be described thus: Antibacterial activity (MIC), Pr. mirabiris, IFO-3849. It is filed as cell-based. As for the experimental part:
as §1

The subject of a further data set is Ser. marcescens, 10100. The data set can be described thus: Antibacterial activity (MIC), Ser. marcescens, 10100. The data set is classed as cell-based. The conditions noted are these: Serratia marcescens. The method, then:
as §1

Another data set has as its system Ps. aeruginosa, 32104. The data set can be described thus: Antibacterial activity (MIC), Ps. aeruginosa, 32104. It is filed as cell-based. The settings on record: Pseudomonas aeruginosa. As for the experimental part: as §1
Another data set concerns Ps. aeruginosa, 32121. The data set can be described thus: Antibacterial activity (MIC), Ps. aeruginosa, 32121. The data set is classed as cell-based. The settings on record: Pseudomonas aeruginosa. As for the experimental part:
as §1

A further data set relates to S. aureus, 209P. The data set can be described thus: Antibacterial activity (MIC), S. aureus, 209P. It is filed as cell-based. The settings on record: Staphylococcus aureus. As for the experimental part: as §1
A further data set concerns S. aureus, Smith. The data set can be described thus: Antibacterial activity (MIC), S. aureus, Smith. The data set is classed as cell-based. The conditions noted are these: Staphylococcus aureus. As for the experimental part:
as §1

A further data set has as its system S. epidermidis, 56500. The data set can be described thus: Antibacterial activity (MIC), S. epidermidis, 56500. It is filed as cell-based. The settings on record: Staphylococcus epidermidis. As for the experimental part:
as §1

The subject of another data set is Str. pyogenes, G-36. The data set can be described thus: Antibacterial activity (MIC), Str. pyogenes, G-36. The data set is classed as cell-based. The settings on record: Streptococcus pyogenes, G36. The method, then:
as §1

Data set [2] has as its system Str. faecalis, ATCC 19433. The data set can be described thus: Antibacterial activity (MIC), Str. faecalis, ATCC 19433. It is filed as cell-based. The conditions noted are these: Enterococcus faecalis, ATCC19433. As for the experimental part: as §1

As for `O=C(O)c1cn([C@@H]2C[C@@H]2F)c2c(Cl)c(N3C[C@H]4NCCO[C@@H]4C3)c(F)cc2c1=O` (mixture of isomers) [Ex. 7, (+)-8-Chloro-6-fluoro-1-[(1R,2S)-2-fluorocyclopropyl]-7-[trans-2-oxa-5,8-diazabicyclo[4.3.0]-nonan-8-yl]-1,4-dihydro-4-oxoquinoline-3-carboxylic acid], in data set [1], the “Partition Coefficient p'” value is given as 26.9.

With `O=C(O)c1cn([C@@H]2C[C@@H]2F)c2c(Cl)c(N3C[C@H]4NCCO[C@@H]4C3)c(F)cc2c1=O` (mixture of isomers) [Ex. 8, (-)-8-Chloro-6-fluoro-1-[(1R,2S)-2-fluorocyclopropyl]-7-[trans-2-oxa-5,8-diazabicyclo[4.3.0]nonan-8-yl]-1,4-dihydro-4-oxoquinoline-3-carboxylic acid], the “Partition Coefficient p'” value in data set [1] came out at 24.8.

As to `Nc1c(F)c(N2C[C@H]3NCCO[C@@H]3C2)c(F)c2c1c(=O)c(C(=O)O)cn2[C@@H]1C[C@@H]1F` (mixture of isomers) [Ex. 9, 5-Amino-6,8-difluoro-1-[(1R,2S)-2-fluorocyclopropyl]-7-(trans-2-oxa-5,8-diazabicyclo[4.3.0]nonan-8-yl) -1,4-dihydro-4-oxoquinoline-3-carboxylic acid], the MIC in the data set with E. coli NIHJ is 0.006 µg/mL; against S. flexneli, 2A, 5503, 0.013 µg/mL; in the data set with Pr. vulgaris, 08601 it was 0.025 µg/mL; in the data set on Pr. mirabiris, IFO-3849, 0.05 µg/mL; with Ser. marcescens, 10100, 0.1 µg/mL; against Ps. aeruginosa, 32104, 0.2 µg/mL. Moreover, the MIC turned out to be 0.05 µg/mL with Ps. aeruginosa, 32121; 0.013 µg/mL against S. aureus, 209P; 0.006 µg/mL with S. aureus, Smith; 0.025 µg/mL in the data set with S. epidermidis, 56500; 0.2 µg/mL with Str. pyogenes, G-36; 0.1 µg/mL in [2].

Regarding `O=C(O)c1cn(C2CC2)c2c(Cl)c(N3C[C@H]4NCCO[C@@H]4C3)c(F)cc2c1=O` (relative stereo) [Compound A, 8-chloro-1-cyclopropyl-6-fluoro-1,4-dihydro-7-(trans-2-oxa-5,8-diazabicyclo[4.3.0]nonan8-yl)-4-oxo-3-quinoline-3-carboxylic acid, reference compound], in [1], the “Partition Coefficient p'” value came out at 112.

Regarding `O=C(O)c1cn(C2CC2)c2c(Cl)c(N3C[C@@H]4CCCN[C@@H]4C3)c(F)cc2c1=O` [Bay y 3118, reference compound], the “Partition Coefficient p'” value in data set [1] came out at 35.8.

As for `O=C(O)c1cn([C@@H]2C[C@@H]2F)c2c(Cl)c(N3C[C@@H]4CCCN[C@@H]4C3)c(F)cc2c1=O` [Ex. 2, 8-Chloro-7-([S,S]-2,8-diazabicyclo[4.3.0]nonan-8-yl)-8-chloro-6-fluoro-1-[(1R,2S)-2-fluorocyclopropyl]-1,4-dihydro-4-oxoquinoline-3-carboxylic Acid], the MIC is at most 0.003 µg/mL in the data set with E. coli NIHJ; 0.006 µg/mL (≈ 0.0142 µM) in the data set on S. flexneli, 2A, 5503; 0.013 µg/mL (≈ 0.0307 µM) against Pr. vulgaris, 08601; 0.025 µg/mL (≈ 0.059 µM) in the data set on Pr. mirabiris, IFO-3849; 0.025 µg/mL (≈ 0.059 µM) in the data set with Ser. marcescens, 10100; 0.05 µg/mL (≈ 0.118 µM) in the data set with Ps. aeruginosa, 32104. Besides, the MIC was 0.05 µg/mL (≈ 0.118 µM) in the data set on Ps. aeruginosa, 32121; 0.013 µg/mL (≈ 0.0307 µM) with S. aureus, 209P; 0.006 µg/mL (≈ 0.0142 µM) against S. aureus, Smith; 0.05 µg/mL (≈ 0.118 µM) against S. epidermidis, 56500; 0.05 µg/mL (≈ 0.118 µM) in the data set on Str. pyogenes, G-36; 0.1 µg/mL (≈ 0.236 µM) in data set [2]. Also, in data set [1], the “Partition Coefficient p'” value was determined as 6.69.

Consider `Nc1c(F)c(N2C[C@@H]3CCCN[C@@H]3C2)c(F)c2c1c(=O)c(C(=O)O)cn2[C@@H]1C[C@@H]1F` [Ex. 3, 5-Amino-7-[(S,S)-2,8-diazabicyclo[4.3.0]nonan-8-yl]-6,8-difluoro-1-[(1R,2S)-2-fluorocyclopropyl]-1,4-dihydro-4-oxoquinoline-3-carboxylic acid], for which the MIC with E. coli NIHJ is 0.006 µg/mL (≈ 0.0142 µM); against S. flexneli, 2A, 5503 it was 0.013 µg/mL (≈ 0.0308 µM); against Pr. vulgaris, 08601, 0.025 µg/mL (≈ 0.0592 µM); against Pr. mirabiris, IFO-3849 it was 0.05 µg/mL (≈ 0.118 µM); against Ser. marcescens, 10100 it was 0.05 µg/mL (≈ 0.118 µM); against Ps. aeruginosa, 32104, 0.05 µg/mL (≈ 0.118 µM). Moreover, the MIC with Ps. aeruginosa, 32121 came to 0.05 µg/mL (≈ 0.118 µM); in the data set with S. aureus, 209P it was 0.025 µg/mL (≈ 0.0592 µM); against S. aureus, Smith, 0.006 µg/mL (≈ 0.0142 µM); against S. epidermidis, 56500 it was 0.025 µg/mL (≈ 0.0592 µM); with Str. pyogenes, G-36 it was 0.1 µg/mL (≈ 0.237 µM); in data set [2] it was 0.1 µg/mL (≈ 0.237 µM).

On to `Cc1c(N2C[C@@H]3CCCN[C@@H]3C2)c(F)cc2c(=O)c(C(=O)O)cn([C@@H]3C[C@@H]3F)c12` [Ex. 4, 7-[(S,S)-2,8-diazabicyclo[4.3.0]nonan-8-yl]-6-fluoro-1-[(1R,2S)-2-fluorocyclopropyl]-8-methyl-1,4-dihydro-4-oxoquinoline-3-carboxylic acid], for which the MIC in the data set on E. coli NIHJ was 0.013 µg/mL (≈ 0.0322 µM); in the data set with S. flexneli, 2A, 5503, 0.025 µg/mL (≈ 0.062 µM); against Pr. vulgaris, 08601, 0.025 µg/mL (≈ 0.062 µM); in the data set on Pr. mirabiris, IFO-3849, 0.05 µg/mL (≈ 0.124 µM); in the data set with Ser. marcescens, 10100, 0.05 µg/mL (≈ 0.124 µM); against Ps. aeruginosa, 32104, 0.1 µg/mL (≈ 0.248 µM). In addition, the MIC turned out to be 0.05 µg/mL (≈ 0.124 µM) against Ps. aeruginosa, 32121; 0.025 µg/mL (≈ 0.062 µM) in the data set on S. aureus, 209P; 0.013 µg/mL (≈ 0.0322 µM) in the data set with S. aureus, Smith; 0.05 µg/mL (≈ 0.124 µM) against S. epidermidis, 56500; 0.1 µg/mL (≈ 0.248 µM) in the data set on Str. pyogenes, G-36; 0.2 µg/mL (≈ 0.496 µM) in data set [2]. Also, the “Partition Coefficient p'” value in data set [1] was found to be 3.73.

As for `O=C(O)c1cn([C@@H]2C[C@@H]2F)c2c(F)c(N3C[C@@H]4CCCN[C@@H]4C3)c(F)cc2c1=O` [Ex. 5, 7-[(S,S)-2,8-diazabicyclo[4.3.0]nonan-8-yl]-6,8-difluoro-1-[(1R,2S)-2-fluorocyclopropyl]-1,4-dihydro-4-oxoquinoline-3-carboxylic acid], the MIC against E. coli NIHJ amounted to 0.013 µg/mL (≈ 0.0319 µM); against S. flexneli, 2A, 5503, 0.013 µg/mL (≈ 0.0319 µM); with Pr. vulgaris, 08601 it was 0.013 µg/mL (≈ 0.0319 µM); against Pr. mirabiris, IFO-3849, 0.05 µg/mL (≈ 0.123 µM); with Ser. marcescens, 10100 it was 0.05 µg/mL (≈ 0.123 µM); with Ps. aeruginosa, 32104 it was 0.1 µg/mL (≈ 0.245 µM). The MIC against Ps. aeruginosa, 32121 is 0.05 µg/mL (≈ 0.123 µM); in the data set with S. aureus, 209P it was 0.025 µg/mL (≈ 0.0614 µM); in the data set on S. aureus, Smith, 0.013 µg/mL (≈ 0.0319 µM); in the data set with S. epidermidis, 56500, 0.1 µg/mL (≈ 0.245 µM); in the data set with Str. pyogenes, G-36 it was 0.1 µg/mL (≈ 0.245 µM); in [2], 0.2 µg/mL (≈ 0.491 µM). Besides, the “Partition Coefficient p'” value in data set [1] came to 5.84.

Turning to `O=C(O)c1cn([C@@H]2C[C@@H]2F)c2c(Cl)c(N3CC4=C(CNC4)C3)c(F)cc2c1=O` [Ex. 6, 8-Chloro-7-[3,7-diazabicyclo[3.3.0]oct-1(5)-ene-3-yl]-6-fluoro-1-[(1R,2S)-2-fluorocyclopropyl]-1,4-dihydro-4-oxoquinoline-3-carboxylic acid], the MIC in the data set with E. coli NIHJ is 0.025 µg/mL (≈ 0.0613 µM); in the data set with S. flexneli, 2A, 5503, 0.013 µg/mL (≈ 0.0319 µM); against Pr. vulgaris, 08601, 0.013 µg/mL (≈ 0.0319 µM); in the data set with Pr. mirabiris, IFO-3849, 0.05 µg/mL (≈ 0.123 µM); in the data set with Ser. marcescens, 10100, 0.2 µg/mL (≈ 0.49 µM); in the data set with Ps. aeruginosa, 32104, 0.2 µg/mL (≈ 0.49 µM). The MIC in the data set on Ps. aeruginosa, 32121 is 0.1 µg/mL (≈ 0.245 µM); in the data set with S. aureus, 209P it was 0.025 µg/mL (≈ 0.0613 µM); with S. aureus, Smith, 0.013 µg/mL (≈ 0.0319 µM); against S. epidermidis, 56500 it was 0.1 µg/mL (≈ 0.245 µM); with Str. pyogenes, G-36, 0.1 µg/mL (≈ 0.245 µM); in data set [2], 0.39 µg/mL (≈ 0.956 µM).

A word on the MIC: it is the least concentration at which growth counts as inhibited. Read a high MIC as a need for much substance.

Source of the values: patent US5654318A, “Bicyclic amine derivatives” (Daiichi Pharmaceutical Co., Ltd., priority 1992, dated 1997).
